The values below come from patent US20060128715A1, “Oxime derivative hydroxyethylamine aspartyl-protease inhibitors” (priority 2004, published 2006).

Values joined by “and” are separate entries in the source; they are usually repeats but may differ in a detail not shown here. Identical values can stand only once.

For the first experiment, the system named is cathepsin D (catD) versus beta-secretase (BACE). Description: Selectivity for BACE versus catD (ratio of IC50 values). To be noted: each value is an average of four experimental runs; multiple values = more than one experiment. The experiment is classed as biochemical. On the procedure: (§1) Selectivity was calculated as a ratio of inhibition (IC50) values in which the inhibition of beta-secretase was compared to the inhibition of other aspartyl proteases.
In the following examples, each value is an average of four experimental runs and multiple values for one compound indicate that more than one experiment was conducted.
In the case of `Cn1cc2c(n1)CCC(NCC(O)C(Cc1cc(F)cc(F)c1)NC(=O)CF)(c1cccc(C(C)(C)C)c1)C2` (stereo not drawn) [Example 50-22], the “Selectivity IC50(catD)/IC50(BACE)” value amounted to 2.0.

Regarding `CC(=O)NC(Cc1cc(F)cc(F)c1)C(O)CNC1(c2cc(CC(C)(C)C)cs2)CCc2n[nH]cc2C1` (stereo not drawn) [Example 50-24], the “Selectivity IC50(catD)/IC50(BACE)” value is 5.9 and 7.0.

`CC(C)(C)c1cccc(C2(NCC(O)C(Cc3cc(F)cc(F)c3)NC(=O)CF)CCc3n[nH]cc3C2)c1` (single isomer, unassigned) [Example 50-27]: the “Selectivity IC50(catD)/IC50(BACE)” value is listed as 7.8.

As for `CC(=O)NC(Cc1cc(F)cc(F)c1)C(O)CNC1(c2cccc(C(C)(C)C)c2)CCC(=CC#N)CC1` (stereo not drawn) [Example 50-14], the “Selectivity IC50(catD)/IC50(BACE)” value was 1.9.

As to `CCON=C1CCC(NCC(O)C(Cc2cc(F)cc(F)c2)NC(C)=O)(c2cccc(C(C)(C)C)c2)CC1` (stereo not drawn) [Example 50-3], the “Selectivity IC50(catD)/IC50(BACE)” value is given as 1.8.

Regarding `CC(=O)NC(Cc1cc(F)cc(F)c1)C(O)CNC1(c2cccs2)CCc2n[nH]cc2C1` (stereo not drawn) [Example 50-23], the “Selectivity IC50(catD)/IC50(BACE)” value is on record as 4.5.

As to `CC(C)(C)c1cccc(C2(NCC(O)C(Cc3cc(F)cc(F)c3)NC(=O)CF)CCc3n[nH]cc3C2)c1` (stereo not drawn) [Example 50-25], the “Selectivity IC50(catD)/IC50(BACE)” value was found to be 8.5.

In the case of `CC(=O)NC(CC(C)C)C(O)CNC1(c2cccc(C(C)(C)C)c2)CCc2n[nH]cc2C1` (stereo not drawn) [Example 50-29], the “Selectivity IC50(catD)/IC50(BACE)” value turned out to be 16.3.

Take `CC(=O)NC(Cc1cc(F)cc(F)c1)C(O)CNC1(c2cccc(C(C)(C)C)c2)CCC(=NOCCO)CC1` (stereo not drawn) [Example 50-4]: the “Selectivity IC50(catD)/IC50(BACE)” value is 2.3 and 2.5.

Take `CC(C)(C)c1cccc(C2(NCC(O)C(Cc3cc(F)cc(F)c3)NS(C)(=O)=O)CCc3n[nH]cc3C2)c1` (single isomer, unassigned) [Example 50-15]: the “Selectivity IC50(catD)/IC50(BACE)” value stood at 25.4.

Consider `CC(=O)NC(Cc1cc(F)cc(F)c1)C(O)CNC1(c2cccc(-c3ccsc3)c2)CCc2nn(C)cc2C1` (stereo not drawn) [Example 50-17], for which the “Selectivity IC50(catD)/IC50(BACE)” value was found to be 1.1.

Regarding `CC(C)(C)c1cccc(C2(NCC(O)C(Cc3cc(F)cc(F)c3)NS(C)(=O)=O)CCc3n[nH]cc3C2)c1` (single isomer, unassigned) [Example 50-16], the “Selectivity IC50(catD)/IC50(BACE)” value was determined as 2.7.

With `CON=C1CCC(NCC(O)C(Cc2cc(F)cc(F)c2)NC(C)=O)(c2cccc(C(C)(C)C)c2)CC1` (stereo not drawn) [Example 50-2], the “Selectivity IC50(catD)/IC50(BACE)” value was 15.9 and 18.3.

Take `CC(=O)NC(Cc1ccccc1)C(O)CNC1(c2cccc(C(C)(C)C)c2)CCc2n[nH]cc2C1` (stereo not drawn) [Example 50-20]: the “Selectivity IC50(catD)/IC50(BACE)” value is listed as 19.1.

Turning to `CC(=O)NC(Cc1cc(F)cc(F)c1)C(O)CNC1(c2cccc(-c3ccoc3)c2)CCc2nn(C)cc2C1` (stereo not drawn) [Example 50-19], the “Selectivity IC50(catD)/IC50(BACE)” value amounted to 1.8.

For `CC(=O)NC(Cc1cc(F)cc(F)c1)C(O)CNC1(c2cccc(C(C)(C)C)c2)CCc2nn(C)cc2C1` (stereo not drawn) [Example 50-28], the “Selectivity IC50(catD)/IC50(BACE)” value is reported as 2.8.

For `Cn1cc2c(n1)CCC(NCC(O)C(Cc1cc(F)cc(F)c1)NS(C)(=O)=O)(c1cccc(C(C)(C)C)c1)C2` (single isomer, unassigned) [Example 50-18], the “Selectivity IC50(catD)/IC50(BACE)” value turned out to be 11.0.

With `CC(C)(C)c1cccc(C2(NCC(O)C(Cc3cc(F)cc(F)c3)NC(=O)CF)CCc3n[nH]cc3C2)c1` (single isomer, unassigned) [Example 50-26], the “Selectivity IC50(catD)/IC50(BACE)” value stood at 17.8.

With `CC(=O)NC(Cc1cc(F)cc(F)c1)C(O)CNC1(c2cccc(C(C)(C)C)c2)CCc2nn(C(C)=O)cc2C1` (stereo not drawn) [Example 50-12], the “Selectivity IC50(catD)/IC50(BACE)” value is listed as 11.1.

The test system of the next experiment is cathepsin E (catE) versus beta-secretase (BACE). Description: Selectivity for BACE versus catE (ratio of IC50 values). In kind it is biochemical. To be noted: multiple values = more than one experiment. Here is the method: as §1
Selectivity is reported as the ratio of IC50(catE):IC50(BACE).
On to `CC(=O)NC(Cc1cc(F)cc(F)c1)C(O)CNC1(c2cccc(C(C)(C)C)c2)CCc2nn(C(C)=O)cc2C1` (stereo not drawn) [Example 51-12], for which the “Selectivity IC50(catE)/IC50(BACE)” value was 8.4.

With `CC(=O)NC(Cc1cc(F)cc(F)c1)C(O)CNC1(c2cccc(-n3cccn3)c2)CCc2nn(C)cc2C1` (stereo not drawn) [Example 51-22], the “Selectivity IC50(catE)/IC50(BACE)” value is recorded as 1.8.

For the molecule `CC(=O)NC(Cc1cc(F)cc(F)c1)C(O)CNC1(c2cccc(-c3ccsc3)c2)CCc2nn(C)cc2C1` (stereo not drawn) [Example 51-20], the “Selectivity IC50(catE)/IC50(BACE)” value is 1.1.

With `CC(=O)NC(Cc1cc(F)cc(F)c1)C(O)CNC1(c2cccc(C(C)(C)C)c2)CCc2nn(C)cc2C1` (stereo not drawn) [Example 51-23], the “Selectivity IC50(catE)/IC50(BACE)” value turned out to be 1.8.

Regarding `Cn1cc2c(n1)CCC(NCC(O)C(Cc1cc(F)cc(F)c1)NS(C)(=O)=O)(c1cccc(C(C)(C)C)c1)C2` (stereo not drawn) [Example 51-21], the “Selectivity IC50(catE)/IC50(BACE)” value was determined as 4.8.

With `CCON=C1CCC(NCC(O)C(Cc2cc(F)cc(F)c2)NC(C)=O)(c2cccc(C(C)(C)C)c2)CC1` (stereo not drawn) [Example 51-3], the “Selectivity IC50(catE)/IC50(BACE)” value stood at 3.3.

Take `CC(C)(C)c1cccc(C2(NCC(O)C(Cc3cc(F)cc(F)c3)NS(C)(=O)=O)CCc3n[nH]cc3C2)c1` (single isomer, unassigned) [Example 51-18]: the “Selectivity IC50(catE)/IC50(BACE)” value worked out at 23.2.

With `CC(C)(C)c1cccc(C2(NCC(O)C(Cc3cc(F)cc(F)c3)NS(C)(=O)=O)CCc3n[nH]cc3C2)c1` (single isomer, unassigned) [Example 51-19], the “Selectivity IC50(catE)/IC50(BACE)” value was determined as 5.8.

Take `C=C1CCC(NCC(O)C(Cc2cc(F)cc(F)c2)NC(C)=O)(c2cccc(C(C)(C)C)c2)CC1` (stereo not drawn) [Example 51-14]: the “Selectivity IC50(catE)/IC50(BACE)” value came out at 1.9.

For the molecule `CC(=O)NC(Cc1cc(F)cc(F)c1)C(O)CNC1(c2cccc(C(C)(C)C)c2)CCC(=CC#N)CC1` (stereo not drawn) [Example 51-17], the “Selectivity IC50(catE)/IC50(BACE)” value was 3.9.

`CON=C1CCC(NCC(O)C(Cc2cc(F)cc(F)c2)NC(C)=O)(c2cccc(C(C)(C)C)c2)CC1` (stereo not drawn) [Example 51-2]: the “Selectivity IC50(catE)/IC50(BACE)” value is 9.3 and 10.4.
